Results from ChEMBL document CHEMBL4196033, “Potent hydrazone derivatives targeting esophageal cancer cells” (Eur J Med Chem, 2018).
Active and inactive are the calls of the source. The rule behind the calls is not given here.

What was measured:
ECa-109 cell line [1] = experiment: Induction of apoptosis in human EC109 cells assessed as necrotic cells at 8 uM after 48 hrs by Annexin V-FITC/propidium iodide staining based flow cytometry (reference value: 0.74 to 1.18%); assay type: functional
EC9706 [2] = experiment: Induction of apoptosis in human EC9706 cells assessed as increase in cleaved caspase-9 protein expression after 48 hrs by Western blot analysis; assay type: functional, cell-based
EC9706 [3] = experiment: Cell cycle arrest in human EC9706 cells assessed as increase in G0/G1 phase population at 4 uM after 24 hrs by propidium iodide staining based flow cytometry relative to control; assay type: functional
GES1 = experiment: Antiproliferative activity against human GES-1 cells after 24 hrs by MTT assay; assay type: cell-based; settings: GES1, 24 h
ECa-109 cell line [4] = experiment: Induction of morphological changes in human EC109 cells assessed as chromatin condensation after 48 hrs by Hoechst 33342 staining based fluorescence microscopic method; assay type: functional, cell-based
ECa-109 cell line [5] = experiment: Induction of apoptosis in human EC109 cells after 48 hrs by Annexin V-FITC/propidium iodide staining based flow cytometry; assay type: functional, cell-based
ECa-109 cell line [6] = experiment: Induction of apoptosis in human EC109 cells assessed as decrease in Bcl2 protein expression after 48 hrs by Western blot analysis; assay type: functional, cell-based
ECa-109 cell line [7] = experiment: Induction of apoptosis in human EC109 cells assessed as live cells at 8 uM after 48 hrs by Annexin V-FITC/propidium iodide staining based flow cytometry (reference value: 95.2 to 99%); assay type: functional
EC9706 [8] = experiment: Effect on Prxs-2 protein expression in human EC9706 cells at 2 to 8 uM after 48 hrs by Western blot analysis; assay type: functional, cell-based
EC9706 [9] = experiment: Induction of apoptosis in human EC9706 cells assessed as live cells at 8 uM after 48 hrs by Annexin V-FITC/propidium iodide staining based flow cytometry (reference value: 85.5 to 96%); assay type: functional
ECa-109 cell line [10] = experiment: Induction of apoptosis in human EC109 cells assessed as early apoptotic cells at 4 uM after 48 hrs in presence of caspase inhibitor Z-VAD-FMK by Annexin V-FITC/propidium iodide staining based flow cytometry (reference value: 0.52%); assay type: functional
ECa-109 cell line [11] = experiment: Induction of apoptosis in human EC109 cells assessed as increase in cleaved caspase-9 protein expression after 48 hrs by Western blot analysis; assay type: functional, cell-based
ECa-109 cell line [12] = experiment: Induction of morphological changes in human EC109 cells assessed as cell rounding after 48 hrs by Hoechst 33342 staining based fluorescence microscopic method; assay type: functional
EC9706 [13] = experiment: Upregulation of p27 protein expression in human EC9706 cells at 2 uM after 24 to 48 hrs by Western blot analysis relative to control; assay type: functional
ECa-109 cell line [14] = experiment: Induction of apoptosis in human EC109 cells assessed as early apoptotic cells at 2 uM after 48 hrs by Annexin V-FITC/propidium iodide staining based flow cytometry (reference value: 0.43 to 1.15%); assay type: functional
ECa-109 cell line [15] = experiment: Induction of apoptosis in human EC109 cells assessed as decrease in Bid protein expression at 2 to 8 uM after 48 hrs by Western blot analysis; assay type: functional, cell-based
EC9706 [16] = experiment: Induction of apoptosis in human EC9706 cells assessed as necrotic cells at 8 uM after 48 hrs by Annexin V-FITC/propidium iodide staining based flow cytometry (reference value: 1.1 to 1.31%); assay type: functional
SMMC-7721 = experiment: Antiproliferative activity against human SMMC7721 cells after 72 hrs by MTT assay; assay type: functional, cell-based; settings: SMMC-7721, 72 h
EC9706 [17] = experiment: Induction of apoptosis in human EC9706 cells assessed as live cells at 4 uM after 48 hrs in presence of caspase inhibitor Z-VAD-FMK by Annexin V-FITC/propidium iodide staining based flow cytometry (reference value: 95.7%); assay type: functional
EC9706 [18] = experiment: Induction of apoptosis in human EC9706 cells assessed as late apoptotic cells at 8 uM after 48 hrs by Annexin V-FITC/propidium iodide staining based flow cytometry (reference value: 1.29 to 1.99%); assay type: functional
ECa-109 cell line [19] = experiment: Induction of apoptosis in human EC109 cells assessed as late apoptotic cells at 4 uM after 48 hrs in presence of caspase inhibitor Z-VAD-FMK by Annexin V-FITC/propidium iodide staining based flow cytometry (reference value: 0.01%); assay type: functional
ECa-109 cell line [20] = experiment: Induction of apoptosis in human EC109 cells assessed as live cells at 8 uM after 48 hrs in presence of caspase inhibitor Z-VAD-FMK by Annexin V-FITC/propidium iodide staining based flow cytometry (reference value: 96.2%); assay type: functional
EC9706 [21] = experiment: Induction of morphological changes in human EC9706 cells assessed as apoptotic body formation after 48 hrs by Hoechst 33342 staining based fluorescence microscopic method; assay type: functional, cell-based
EC9706 [22] = experiment: Induction of ROS generation in human EC9706 cells at 2 uM after 24 hrs by DCFH-DA staining based flow cytometry relative to control; assay type: functional
EC9706 [23] = experiment: Induction of apoptosis in human EC9706 cells assessed as increase in p53 protein expression after 48 hrs by Western blot analysis; assay type: functional, cell-based
Mus musculus = experiment: Acute toxicity in C57BL/6 mouse assessed as histopathological changes in heart at 2 g/kg, ig measured for 2 weeks by hematoxylin and eosin staining based microscopic method; assay type: organism-based; settings: in vivo, po, 2000 mg/kg, 336 h
EC9706 [24] = experiment: Induction of apoptosis in human EC9706 cells assessed as decrease in Bid protein expression at 2 to 8 uM after 48 hrs by Western blot analysis; assay type: functional, cell-based
ECa-109 cell line [25] = experiment: Upregulation of p27 protein expression in human EC109 cells at 8 uM after 24 to 48 hrs by Western blot analysis relative to control; assay type: functional
EC9706 [26] = experiment: Induction of apoptosis in human EC9706 cells assessed as early apoptotic cells at 2 uM after 48 hrs by Annexin V-FITC/propidium iodide staining based flow cytometry (reference value: 0.68 to 1.58%); assay type: functional
EC9706 [27] = experiment: Induction of apoptosis in human EC9706 cells assessed as necrotic cells at 8 uM after 48 hrs in presence of caspase inhibitor Z-VAD-FMK by Annexin V-FITC/propidium iodide staining based flow cytometry (reference value: 1.2%); assay type: functional
ECa-109 cell line [28] = experiment: Induction of morphological changes in human EC109 cells assessed as apoptotic body formation after 48 hrs by Hoechst 33342 staining based fluorescence microscopic method; assay type: functional, cell-based
MGC-803 = experiment: Antiproliferative activity against human MGC803 cells after 72 hrs by MTT assay; assay type: functional, cell-based; settings: MGC-803, 72 h
ECa-109 cell line [29] = experiment: Upregulation of p27 protein expression in human EC109 cells at 2 uM after 24 to 48 hrs by Western blot analysis relative to control; assay type: functional
ECa-109 cell line [30] = experiment: Induction of ROS generation in human EC109 cells at 8 uM after 24 hrs by DCFH-DA staining based flow cytometry relative to control; assay type: functional
EC9706 [31] = experiment: Induction of apoptosis in human EC9706 cells assessed as increase in cleaved caspase-3 protein expression after 48 hrs by Western blot analysis; assay type: functional, cell-based
EC9706 [32] = experiment: Induction of apoptosis in human EC9706 cells assessed as necrotic cells at 4 uM after 48 hrs by Annexin V-FITC/propidium iodide staining based flow cytometry (reference value: 1.1 to 1.31%); assay type: functional
EC9706 [33] = experiment: Effect on Prxs-1 protein expression in human EC9706 cells at 2 to 8 uM after 48 hrs by Western blot analysis; assay type: functional, cell-based

COc1ccc(/C=N/NC(=O)c2cccc(S(=O)(=O)N3CCOCC3)c2)c(O)c1
Activity (ECa-109 cell line [1]): 2.23 - 13% | Activity (EC9706 [2]): Dose-dependent effect | fold change (FC) (EC9706 [3]): 1.22 | IC50 (GES1): > 80 µM | Activity (ECa-109 cell line [4]): Dose-dependent effect | Activity (ECa-109 cell line [5]): Dose-dependent effect | Activity (ECa-109 cell line [6]): Dose-dependent effect | Activity (ECa-109 cell line [7]): 25.2 - 26.7% | Activity (EC9706 [8]): Active | Activity (EC9706 [9]): 29.9 - 61.1% | Activity (ECa-109 cell line [10]): 9.34% | Activity (ECa-109 cell line [11]): Dose-dependent effect | Activity (ECa-109 cell line [12]): Dose-dependent effect | fold change (FC) (EC9706 [13]): 1.3 | Activity (ECa-109 cell line [14]): 13.3% | Activity (ECa-109 cell line [15]): Active | Activity (EC9706 [16]): 10.1 - 10.2% | IC50 (SMMC-7721): 3.95 µM | Activity (EC9706 [17]): 42.1% | Activity (EC9706 [18]): 25 - 33.1% | Activity (ECa-109 cell line [19]): 21.1% | Activity (ECa-109 cell line [20]): 26.9% | Activity (EC9706 [21]): Dose-dependent effect | fold change (FC) (EC9706 [22]): 1.16 | Activity (EC9706 [23]): Dose-dependent effect | Activity (Mus musculus): Non-Toxic | Activity (EC9706 [24]): Active | fold change (FC) (ECa-109 cell line [25]): 1.9 | Activity (EC9706 [26]): 1.56% | Activity (EC9706 [27]): 17% | Activity (ECa-109 cell line [28]): Dose-dependent effect | IC50 (MGC-803): 2.07 µM | fold change (FC) (ECa-109 cell line [29]): 1.2 | fold change (FC) (ECa-109 cell line [30]): 2.21 | Activity (EC9706 [31]): Dose-dependent effect | Activity (EC9706 [32]): 0.48 - 16.1% | Activity (EC9706 [33]): Active
